Test results as given in patent publication US9540327B2, “Bis-quaternary ammonium salts and methods for modulating neuronal nicotinic acetylcholine receptors” (University of Kentucky Research Foundation, priority 2006, dated 2017).
Like-named read-outs stand apart in the source and are kept apart here.

What was measured:
[1] = tested on: Nicotine-evoked [^3H]Dopamine Release from Superfused Rat Striatal Slices; assay: Inhibition of nicotine-evoked [^3H]dopamine overflow from superfused rat striatal slices; assay type: cell-based; conditions: nicotine 10 μM; for inhibition at 0.1 µM: analog 100 nM, superfused rat striatal slices, read-out: Inhibition Nicotine-evoked [^3H]DA release (% inhibition at 100 nM)
Procedure: The [^3H]dopamine overflow assay using superfused rat striatal slices preloaded with [^3H]dopamine was used to determine the ability of a probe concentration (100 nM) of each bis-quaternary ammonium analog to inhibited nicotine-evoked [^3H]dopamine overflow. Briefly, coronal slices of rat striata (500 μm, 6-8 mg) were obtained using a Mcllwain tissue chopper. Slices were incubated for 30 min in Krebs' buffer (in mM: 118 NaCl, 4.7 KCl, 1.2 MgCl2, 1.0 NaH2PO4, 1.3 CaCl2, 11.1 α-D-glucose, 25 NaHCO3, 0.11 L-ascorbic acid and 0.004 ethylenediaminetetraacetic acid (EDTA), pH 7.4, saturated with 95% O2/5% CO2) at 34° C. in a metabolic shaker. Slices were then incubated for an additional 30 min in fresh buffer containing 0.1 μM [^3H]dopamine. After rinsing, each slice was transferred to each one of 20 superfusion chambers, maintained at 34° C. and superfused (0.6 ml/min) with oxygenated Krebs' buffer in a Brandel Suprafusion 2500 (Biomedical Research and Development Laboratories, Inc., Gaithersburg, Md.). The buffer contained both nomifensine (10 μM), a dopamine uptake blocker, and pargyline (10 μM), a monoamine oxidase inhibitor, ensuring that [^3H]overflow primarily represented [^3H]dopamine, rather than [^3H]metabolites. Following superfusion for 60 min, two 4-min samples (2.4 ml/sample) were collected to determine basal [^3H]outflow. After collection of the second basal sample, slices from an individual rat were superfused for 40 min in the absence (0 nM; control) or presence of each bis-quaternary ammonium analog (100 nM) to determine the intrinsic activity of the analog, i.e., ability of the analog to evoke [^3H]overflow. Following 40 min of superfusion in the absence or presence of analog, nicotine (10 μM) was added to the superfusion buffer and samples were collected for an additional 40 min to determine the ability of the analog to inhibit nicotine-evoked [^3H]dopamine overflow. At least one striatal slice in each experiment was superfused for 40 min in the absence of analog, followed by superfusion with 10 μM nicotine to determine nicotine-evoked [^3H]dopamine overflow in the absence of analog (nicotine control). After collection of the superfusate samples, the slices were retrieved from the chambers and solubilized using 1 ml of TS-2 tissue solubilizer. Scintillation cocktail (4 ml) was added to the superfusate samples. The pH and volume of the solubilized tissue samples were adjusted to that of the superfusate samples. Radioactivity in the superfusate and tissue samples was determined by liquid scintillation spectroscopy (Packard model B 1600 TR Scintillation Counter, Downer's Grove, Ill.).
For individual analogs, a complete concentration response was determined using the following methodology. Rat striatal slices (500 μm thickness, 6-8 mg wet weight) were incubated for 30 minutes in Krebs buffer (118 mM NaCl, 4.7 mM KCl, 1.2 mM MgCl2, 1.0 mM NaH2PO4, 1.3 mM CaCl2, 11.1 mM glucose, 25 mM NaHCO3, 0.11 mM L-ascorbic acid, and 0.004 mM disodium EDTA; pH 7.4, and saturated with 95% O2/5% CO2) in a metabolic shaker at 34° C. Slices were rinsed with 15 mL of fresh buffer and incubated for an additional 30 minutes in fresh buffer containing 0.1 μM [^3H]dopamine (DA; 6 slices/3 mL). Subsequently, slices were rinsed with 15 mL of fresh buffer and transferred to a glass superfusion chamber. Slices were superfused (1.0 mL/min) for 60 minutes with Krebs buffer containing nomifensine (10 μM) and pargyline (10 μM) and maintained at 34° C., pH 7.4, with continual aeration (95% O2/5% CO2). Three 5-minute samples (5 mL each) were collected to determine basal outflow of [^3H]DA. The bis-quaternary analogs were added to the superfusion buffer after the collection of the third sample and remained in the buffer until 12 consecutive five minute samples were collected. Subsequently, S-(−)-nicotine (10 μM) was added to the buffer and an additional 12 consecutive five minute samples were collected. […]

[2] = molecular target: T1, Rat Striatal Nicotinic Receptors ([^3H]MLA binding sites; α7) (Rattus norvegicus, UniProt Q05941); assay: Inhibition of [^3H]methyllycaconitine binding to rat brain membranes
T1 construct: Whole brain, excluding cortex and cerebellum, was homogenized in 20 vol of ice-cold buffer; from tissue; host or cells: rat brain membranes (whole brain excluding cortex and cerebellum)
Procedure: (§1) Whole brain, excluding cortex and cerebellum, was homogenized in 20 vol of ice-cold buffer, containing (in mM): 2 HEPES, 11.8 NaCl, 0.48 KCl, 0.25 CaCl2 and 0.12 MgSO4, pH 7.5. Homogenate was centrifuged (25,000 g, 15 min, 4° C.). Pellets were resuspended in 20 vol buffer and incubated at 37° C., for 10 min, cooled to 4° C. and centrifuged (25,000 g, 15 min, 4° C.). Pellets were resuspended and centrifuged using the same conditions. Final pellets were stored in assay buffer, containing (in mM): 20 HEPES, 118 NaCl, 4.8 KCl, 2.5 CaCl2, and 1.2 MgSO4, pH 7.5 at −70° C. Upon use, final pellets were resuspended in ˜20 vol assay buffer. Samples (250 μl) contained 100-140 μg of membrane protein, 3 nM [^3H]nicotine or 3 nM [^3H]methyllycaconitine, and analog (100 nM) in assay buffer containing 50 mM Tris. Control was in the absence of analog. In [^3H]nicotine and [^3H]methyllycaconitine binding assays, nonspecific binding was determined in the presence of 10 μM cytisine and 10 μM nicotine, respectively. Incubations proceeded for 60 min at room temperature using 96-well plates and were terminated by harvesting on Unifilter-96 GF/B filter plates presoaked in 0.5% polyethylenimine, using a Packard FilterMate harvester. After washing 5 times with 350 μl ice-cold assay buffer, filter plates were dried (60 min, […]), bottom-sealed, and filled with Packard's MicroScint 20 cocktail (40 μl/well). After 60 min, filter plates were top-sealed, and radioactivity determined using a Packard TopCount. Protein concentrations were determined using the Bradford dye-binding procedure bovine serum albumin as the standard.
(§2) […] Specific binding in the [^3H]NIC binding assay is calculated as the difference between the total binding of 3 nM [^3H]NIC and nonspecific binding in the presence of 10 μM cytisine. Specific binding for the [^3H]MLA binding assay is calculated as the difference between the total binding of 3 nM [^3H]MLA to the receptors alone and its nonspecific binding in the presence of 10 μM nicotine. Analog-induced inhibition of nicotine-evoked [^3H]DA release is calculated as a percent of that in the absence of the bis-quaternary ammonium analog.

[3] = molecular target: T2, Rat Striatal Nicotinic Receptors ([^3H]NIC binding sites; α4β2) (Rattus norvegicus, UniProt P09483+P12390); assay: Inhibition of [^3H]nicotine binding to rat brain membranes
T2 construct: Whole brain, excluding cortex and cerebellum, was homogenized in 20 vol of ice-cold buffer; from tissue; host or cells: rat brain membranes (whole brain excluding cortex and cerebellum)
Procedure: as §1, §2

[4] = 3 nM [^3H]methyllycaconitine, nonspecific binding with 10 μM nicotine, rat brain membranes, read-out: Inhibition of [^3H]MLA Binding Ki (μM; M ± SEM)
[5] = 3 nM [^3H]nicotine, nonspecific binding with 10 μM cytisine, rat brain membranes, read-out: Inhibition of [^3H]Nicotine binding Ki (μM; M ± SEM)

T1 sequence (Q05941 23-502): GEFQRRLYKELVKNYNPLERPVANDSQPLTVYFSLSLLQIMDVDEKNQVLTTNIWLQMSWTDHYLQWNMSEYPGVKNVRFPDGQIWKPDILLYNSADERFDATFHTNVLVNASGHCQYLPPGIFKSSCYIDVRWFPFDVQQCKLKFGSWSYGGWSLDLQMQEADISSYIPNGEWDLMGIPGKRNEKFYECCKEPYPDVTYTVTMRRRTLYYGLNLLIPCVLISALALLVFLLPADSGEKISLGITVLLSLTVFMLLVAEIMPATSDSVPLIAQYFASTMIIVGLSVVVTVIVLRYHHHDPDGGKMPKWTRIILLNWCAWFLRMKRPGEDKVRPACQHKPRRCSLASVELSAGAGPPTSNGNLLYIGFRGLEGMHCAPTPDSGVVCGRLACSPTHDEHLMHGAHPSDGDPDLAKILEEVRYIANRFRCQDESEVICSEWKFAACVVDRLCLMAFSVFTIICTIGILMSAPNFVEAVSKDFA
T2 sequence (P09483 31-630): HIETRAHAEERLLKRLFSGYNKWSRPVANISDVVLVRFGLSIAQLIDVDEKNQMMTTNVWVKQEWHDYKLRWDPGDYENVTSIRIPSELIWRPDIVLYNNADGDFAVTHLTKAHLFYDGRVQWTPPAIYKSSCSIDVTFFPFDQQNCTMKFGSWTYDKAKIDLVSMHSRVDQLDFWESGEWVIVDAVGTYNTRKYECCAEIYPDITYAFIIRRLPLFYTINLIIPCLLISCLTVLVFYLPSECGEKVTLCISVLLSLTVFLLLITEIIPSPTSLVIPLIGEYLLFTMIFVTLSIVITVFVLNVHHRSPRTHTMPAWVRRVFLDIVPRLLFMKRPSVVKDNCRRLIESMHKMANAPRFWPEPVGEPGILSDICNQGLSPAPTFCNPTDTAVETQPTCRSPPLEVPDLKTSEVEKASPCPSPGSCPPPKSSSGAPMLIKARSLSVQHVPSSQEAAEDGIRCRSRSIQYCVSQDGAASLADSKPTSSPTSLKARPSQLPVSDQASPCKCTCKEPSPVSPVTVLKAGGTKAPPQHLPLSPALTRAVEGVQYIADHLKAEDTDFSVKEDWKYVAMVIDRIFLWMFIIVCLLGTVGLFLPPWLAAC
T2 sequence (P12390 25-500): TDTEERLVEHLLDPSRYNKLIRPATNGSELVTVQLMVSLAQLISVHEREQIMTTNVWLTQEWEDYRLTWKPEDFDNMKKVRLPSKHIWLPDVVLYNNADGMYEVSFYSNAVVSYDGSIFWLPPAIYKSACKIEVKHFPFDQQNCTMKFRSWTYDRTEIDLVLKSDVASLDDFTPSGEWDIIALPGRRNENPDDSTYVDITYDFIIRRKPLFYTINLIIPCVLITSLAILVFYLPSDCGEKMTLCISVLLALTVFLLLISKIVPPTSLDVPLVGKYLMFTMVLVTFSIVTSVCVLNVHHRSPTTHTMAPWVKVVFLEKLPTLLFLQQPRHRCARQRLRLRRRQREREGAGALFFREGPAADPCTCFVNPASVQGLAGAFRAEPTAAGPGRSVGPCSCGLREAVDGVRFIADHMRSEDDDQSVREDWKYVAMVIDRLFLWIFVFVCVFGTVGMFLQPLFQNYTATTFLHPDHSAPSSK

| SMILES | inhibition at 0.1 µM [1] [%] | Ki [2, 4] [µM] | Ki [3, 5] [µM] | Ki [2] [µM] | Ki [3] [µM] | concentration dependent inhibition of the effect of nicotine to evoke [^3H]dopamine release (FIG. 1) ([1]; full concentration response, rat striatal slices) |
| --- | --- | --- | --- | --- | --- | --- |
| C[n+]1cccc(CCCc2ccc[n+](C)c2)c1 [GZ-527A] | 32 | > 100 | 8.2 ± 1.78 | – | – | – |
| C[n+]1ccccc1CCCc1cccc[n+]1C [GZ-528A] | 49 | – | – | > 100 | 8.17 ± 0.17 | – |
| Cc1cc(C)c[n+](CCCc2ccc[n+](C)c2)c1 [GZ-529B] | 25 | – | – | > 100 | > 100 | – |
| Cc1ccc[n+](CCCc2ccc[n+](C)c2)c1 [GZ-529A] | 43 | > 100 | > 100 | – | – | – |
| CN1CCC[C@@H]1c1ccc[n+](CCCc2ccc[n+](C)c2)c1 [GZ-530A] | 43 | – | – | > 100 | 6.62 ± 1.14 | – |
| C[n+]1ccc(CCCc2cc[n+](C)cc2)cc1 [GZ-527B] | 67 | – | – | > 100 | 7.88 ± 1.68 | concentration dependent inhibition |
| Cc1cc(CCCc2cc(C)c[n+](C)c2)c[n+](C)c1 [GZ-528B] | 30 | > 100 | > 100 | – | – | – |
| C[n+]1cccc(CCC[n+]2ccccc2)c1 [GZ-530B] | 9 | – | – | > 100 | 23.4 ± 3.94 | – |
